Assays:
[1] = tested on: PC3 cells stably transfected with GFP-LC3; set-up: method as in PMID 20811583; settings: cited from earlier work
[2] = tested on: pEtk, pSrc, pSTAT3, Myc and BCL2 in PC3-AZD20 cells; assay: Western blot of pEtk, pSrc, pStat3, Myc and BCL2; assay type: cell-based, human; settings: PC3-AZD20, 10 μM
Method: PC3-AZD20 cells were seeded at 10^6 cells/well in 6 well plates overnight. The cells were treated with AZD0530 or CTA095 at 10 μM. Apoptosis was analyzed using Annexin-V FITC apoptosis detection kit. The mRNA levels of Myc and BCL2 were measured using real-time PCR. pEtk, Etk, pSrc, Src, pStat3, Stat3, Myc and BCL2 levels were measured using the corresponding antibodies through a Western blot.
Figure 12 CTA095 induces apoptosis in Src inhibitor resistant prostate cancer cells through Myc and BCL2 inhibition. PC3-AZD20 (PC3 cell resistant to 20 μM AZD0530) cells were seeded at 10^6 cells/well in 6 well plates overnight. The cells were treated with AZD0530 or CTA095 at 10 μM. Apoptosis was analyzed using Annexin-V FITC apoptosis detection kit (A). The mRNA levels of Myc and BCL2 were measured using real-time PCR (B). pEtk, Etk, pSrc, Src, pStat3, Stat3, Myc and BCL2 levels were measured using the corresponding antibodies through Western blot (C). Columns, mean; bars, standard deviation, n = 3.

[3] = tested on: PC3-AZD20 cells; assay: MTT cell viability in Src inhibitor resistant cells; assay type: cell-based, human; settings: 72 h
Method: PC3 and PC3-AZD20 (PC3 cell resistant to 20 μM AZD0530, which is from AstraZeneca through MTA with Dr. Chris Evans) cells were seeded at 2000 cells/well in 96 well plates overnight. The cells were treated with AZD0530 or CTA095 at the indicated concentrations. Cell viability was measured using an MTT assay after 72 h.
Figure 11 CTA095 overcomes Src inhibitor resistance in prostate cancer cells. PC3 and PC3-AZD20 (PC3 cell resistant to 20 μM AZD0530) cells were seeded at 2000 cells/well in 96 well plates overnight. The cells were treated with AZD0530 or CTA095 at the indicated concentrations. Cell viability was measured using MTT assay after 72 h. Symbols, mean; bars, standard deviation, n = 3.

With `CN1CCN(CCOc2cc(OC3CCOCC3)c3c(Nc4c(Cl)ccc5c4OCO5)ncnc3c2)CC1` [AZD0530, reference compound] as the compound, how does the “autophagy in prostate cancer cells” value [1] read?
Its value is “induces autophagy”.

And the “pEtk, pSrc, pSTAT3, Myc and BCL2 protein levels” value [2]?
The value was “pSrc and pSTAT3, but not c-myc and Bcl-2 were decreased”.

And the “cell viability / sensitivity of PC3-AZD20 cells” value [3]?
The value was “resistant”.
